Measured values: US9480675B2, “Method for increasing muscle growth by blocking sirtuin activity” (THE REGENTS OF THE UNIVERSITY OF CALIFORNIA, priority 2013, dated 2016)

Test system: wild type mice
Assay: 14 days of overload (synergist ablation of GTN and SOL) with daily injection of SIRT1 inhibitor; plantaris muscle hypertrophy
Format: in vivo
Text: The plantaris (PLN) muscle in test subjects was overloaded by removal of the gastrocnemius (GTN) and soleus (SOL) muscles, termed synergist ablation. Briefly, test animals were anaesthetized and the area above the incision shaved and sterilized. The SOL and GTN were isolated and severed at the Achilles tendon. The complete SOL and the distal two thirds of the GTN were removed leaving the PLN muscle and their blood and nerve supply intact. The overlying skin was sutured with 6-0 vicryl and the animal was then given the analgesic and moved to a temperature-controlled environment to recover. […] Animals were monitored on a daily basis for signs of pain or post-operative infection. […] On the day of collection, animals were anaesthetized and overloaded and contralateral control muscles were rapidly removed, rinsed in PBS, all connective/scar tissue was removed using a dissection microscope, then the muscles were snap frozen in liquid nitrogen, and stored at −80° C. until processed.
To determine whether the effect of SIRT1 on overload-induced muscle hypertrophy required genetic ablation or whether pharmacological ablation of SIRT1 activity could mimic the effect of the knockout, GTN and SOL muscles of wild type mice were removed and half of the mice received daily injections of the SIRT1 inhibitor Splitomycin. There were 14 days of overload performed in wild type mice concurrent with daily injection of either saline (CON) or Splitomycin (Split).

O=C1CCc2c(ccc3ccccc23)O1 [Splitomycin]
effectiveness of therapeutic dose (in words) (25 mg/kg body weight per day): effective
effect on basal muscle mass (14 days of daily injection): without affecting basal muscle mass
effect on muscle hypertrophy (in words) (wild type mice, 14 days of overload, daily injection, saline (CON) vs Splitomycin (Split), FIG. 6): increases muscle hypertrophy
more muscle hypertrophy than vehicle (saline) injection (wild type mice, 14 days of overload, daily injection, versus saline/vehicle (FIG. 6)): 65%
